Results taken from PubChem BioAssay AID602251 (NMMLSC, 2012).
Activity calls are given as the source filed them.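 How the source made its calls: active means fitted concentration giving half of the maximal binding block below 66 µM; inactive means the rest.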

Target: anti-desmoglein 3 scFv antibody binding to human desmoglein 3 (DSG3)
Assay: blockers of pemphigus antibody–desmoglein 3 interaction – biochemical, DSG3-coupled beads, scFv-GFP, flow cytometry, Cherry Pick 1, dose response (AID 602251)
Settings: at 66.1 µM (top of the series)

binding response, lower = inhibition	Structure (SMILES)
inactive	Cc1c(OCC(=O)NCc2ccccn2)ccc2c(-c3ccccc3)cc(=O)oc12
inactive	CC(=O)c1c(C)n(-c2ccc(Cl)cc2)c2ccc(O)cc12
